Reference: patent US11192867B2, “Microbiocidal oxadiazole derivatives” (SYNGENTA PARTICIPATIONS AG, priority 2016, dated 2021)

What was measured:
[1] = test system: Puccinia recondita f. sp. Tritici; assay: Fungicidal activity against Puccinia recondita f. sp. Tritici / wheat / leaf disc curative (brown rust); assay type: in vivo; settings: foliar, 24 h, 200 ppm in the applied formulation, wheat leaf segments cv. Kanzler, applied 1 day after inoculation, vs untreated control, read-out: disease control
Experimental: Leaf disks or leaf segments of various plant species are cut from plants grown in a greenhouse. The cut leaf disks or segments are placed in multiwell plates (24-well format) onto water agar. The leaf disks are sprayed with a test solution before (preventative) or after (curative) inoculation. Compounds to be tested are prepared as DMSO solutions (max. 10 mg/ml) which are diluted to the appropriate concentration with 0.025% Tween20 just before spraying. The inoculated leaf disks or segments are incubated under defined conditions (temperature, relative humidity, light, etc.) according to the respective test system. A single evaluation of disease level is carried out 3 to 14 days after inoculation, depending on the pathosystem. Percent disease control relative to the untreated check leaf disks or segments is then calculated.
Wheat leaf segments cv. Kanzler are placed on agar in multiwell plates (24-well format). The leaf segments are then inoculated with a spore suspension of the fungus. Plates were stored in darkness at 19° C. and 75% relative humidity. The formulated test compound diluted in water was applied 1 day after inoculation. The leaf segments were incubated at 19° C. and 75% relative humidity under a light regime of 12 hours light/12 hours darkness in a climate cabinet and the activity of a compound was assessed as percent disease control compared to untreated when an appropriate level of disease damage appears in untreated check leaf segments (6 to 8 days after application).
The following compounds at 200 ppm in the applied formulation give at least 80% disease control in this test when compared to untreated control leaf disks under the same conditions, which show extensive disease development.

[2] = test system: Glomerella lagenarium (Colletotrichum lagenarium); assay: Fungicidal activity against Glomerella lagenarium (Colletotrichum lagenarium) liquid culture / cucumber / preventative (anthracnose); assay type: cell-based; settings: Colletotrichum orbiculare, 72 h; 20 ppm in the applied formulation; liquid culture (PDB), growth inhibition measured photometrically 3 to 4 days after application; vs untreated control; read-out: disease control
Procedure, shortened: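 In liquid culture, cryo-stored conidia in potato dextrose broth were exposed to compound delivered from DMSO solution. Growth inhibition was measured photometrically after 3 to 4 days at 24° C.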

[3] = test system: Phakopsora pachyrhizi; assay: Fungicidal activity against Phakopsora pachyrhizi / soybean / leaf disc preventative (Asian soybean rust); assay type: in vivo; settings: foliar, 200 ppm in the applied formulation, soybean leaf disks, vs untreated control, read-out: disease control
Procedure, shortened: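 Soybean leaf discs on water agar sprayed with compound diluted in water, then inoculated with spores on the lower surface one day later. Kept 24-36 h dark, 20 °C, 75% rh, then 12 h light/12 h dark. Percent disease control versus untreated scored 12-14 days after application.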

[4] = test system: Puccinia recondita f. sp. Tritici; assay: Fungicidal activity against Puccinia recondita f. sp. Tritici / wheat / leaf disc preventative (brown rust); assay type: in vivo; settings: foliar, 200 ppm in the applied formulation, wheat leaf segments cv. Kanzler, inoculated 1 day after application, vs untreated control, read-out: disease control
Procedure, shortened: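 Compound, diluted from DMSO solution into aqueous 0.025% Tween20, is sprayed at 200 ppm onto cut wheat segments (cv. Kanzler) placed on water agar. One day on, segments receive a fungal spore suspension and are incubated at 19° C., 75% rh, 12 h photoperiod, with % control vs untreated scored at 7–9 days.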

CO/N=C/CNC(=O)c1ccc(-c2noc(C(F)(F)F)n2)cc1F [Compound 1.4, 2-fluoro-N-[(2E)-2-methoxyimino-ethyl]-4-[5-(trifluoromethyl)-1,2,4-oxadiazol-3-yl]benzamide]
≥ 80%: pest or weed control at 200 ppm [1] | inhibition of growth at 20 ppm [2] | pest or weed control at 200 ppm [3] | pest or weed control at 200 ppm [4]

CO/N=C\NC(=O)c1ccc(-c2noc(C(F)(F)F)n2)cc1 [Compound 1.5, N-[(Z)-methoxyiminomethyl]-4-[5-(trifluoromethyl)-1,2,4-oxadiazol-3-yl]benzamide]
≥ 80%: pest or weed control at 200 ppm [1] | inhibition of growth at 20 ppm [2] | pest or weed control at 200 ppm [3] | pest or weed control at 200 ppm [4]

CC(C=NOCCO)NC(=O)c1ccc(-c2noc(C(F)(F)F)n2)cc1 (centres unmarked) [Compound 1.15, N-[2-(2-hydroxyethoxy-imino)-1-methyl-ethyl]-4-[5-(trifluoromethyl)-1,2,4-oxadiazol-3-yl]benzamide]
≥ 80%: pest or weed control at 200 ppm [1] | inhibition of growth at 20 ppm [2] | pest or weed control at 200 ppm [3] | pest or weed control at 200 ppm [4]

CC(C=NOCCN)NC(=O)c1ccc(-c2noc(C(F)(F)F)n2)cc1 (centres unmarked) [Compound 1.21, N-[2-(2-aminoethoxy-imino)-1-methyl-ethyl]-4-[5-(trifluoromethyl)-1,2,4-oxadiazol-3-yl]benzamide]
≥ 80%: pest or weed control at 200 ppm [1] | pest or weed control at 200 ppm [3] | pest or weed control at 200 ppm [4]

CC(C=NOCC=CCl)NC(=O)c1ccc(-c2noc(C(F)(F)F)n2)cc1 (centres unmarked) [Compound 1.33, N-[2-(3-chloroallyloxy-imino)-1-methyl-ethyl]-4-[5-(trifluoromethyl)-1,2,4-oxadiazol-3-yl]benzamide]
≥ 80%: pest or weed control at 200 ppm [1] | inhibition of growth at 20 ppm [2] | pest or weed control at 200 ppm [3] | pest or weed control at 200 ppm [4]

CC(C=NOC/C=C\Cl)NC(=O)c1ccc(-c2noc(C(F)(F)F)n2)cc1 (centres unmarked) [Compound 1.36, N-[2-[(Z)-3-chloroallyloxy]imino-1-methyl-ethyl]-4-[5-(trifluoromethyl)-1,2,4-oxadiazol-3-yl]benzamide]
≥ 80%: pest or weed control at 200 ppm [1] | inhibition of growth at 20 ppm [2] | pest or weed control at 200 ppm [3] | pest or weed control at 200 ppm [4]

CCON=CC(C)NC(=O)c1ccc(-c2noc(C(F)(F)F)n2)cc1 (centres unmarked) [Compound 1.43, N-(2-ethoxyimino-1-methyl-ethyl)-4-[5-(trifluoromethyl)-1,2,4-oxadiazol-3-yl]benzamide]
≥ 80%: pest or weed control at 200 ppm [1] | inhibition of growth at 20 ppm [2] | pest or weed control at 200 ppm [3] | pest or weed control at 200 ppm [4]

C=CCON=CC(C)NC(=O)c1ccc(-c2noc(C(F)(F)F)n2)cc1 (centres unmarked) [Compound 1.46, N-(2-allyloxyimino-1-methyl-ethyl)-4-[5-(trifluoromethyl)-1,2,4-oxadiazol-3-yl]benzamide]
≥ 80%: pest or weed control at 200 ppm [1] | inhibition of growth at 20 ppm [2] | pest or weed control at 200 ppm [3] | pest or weed control at 200 ppm [4]

CC(C=NOC1COC1)NC(=O)c1ccc(-c2noc(C(F)(F)F)n2)cc1 (centres unmarked) [Compound 1.58, N-[1-methyl-2-(oxetan-3-yloxyimino)ethyl]-4-[5-(trifluoromethyl)-1,2,4-oxadiazol-3-yl]benzamide]
≥ 80%: pest or weed control at 200 ppm [1] | inhibition of growth at 20 ppm [2] | pest or weed control at 200 ppm [3] | pest or weed control at 200 ppm [4]

O=C(NCC=NOCCO)c1ccc(-c2noc(C(F)(F)F)n2)cc1 [Compound 1.60, N-[2-(2-hydroxyethoxy-imino)ethyl]-4-[5-(trifluoromethyl)-1,2,4-oxadiazol-3-yl]benzamide]
≥ 80%: pest or weed control at 200 ppm [1] | inhibition of growth at 20 ppm [2] | pest or weed control at 200 ppm [3] | pest or weed control at 200 ppm [4]

NCCON=CCNC(=O)c1ccc(-c2noc(C(F)(F)F)n2)cc1 [Compound 1.66, N-[2-(2-aminoethoxy-imino)ethyl]-4-[5-(trifluoromethyl)-1,2,4-oxadiazol-3-yl]benzamide]
≥ 80%: pest or weed control at 200 ppm [1] | inhibition of growth at 20 ppm [2] | pest or weed control at 200 ppm [3] | pest or weed control at 200 ppm [4]

O=C(NCC=NOC1CCCCO1)c1ccc(-c2noc(C(F)(F)F)n2)cc1 (centres unmarked) [Compound 1.70, N-(2-tetrahydropyran-2-yloxyiminoethyl)-4-[5-(trifluoromethyl)-1,2,4-oxadiazol-3-yl]benzamide]
≥ 80%: pest or weed control at 200 ppm [1] | inhibition of growth at 20 ppm [2] | pest or weed control at 200 ppm [3] | pest or weed control at 200 ppm [4]

CCCON=CCNC(=O)c1ccc(-c2noc(C(F)(F)F)n2)cc1 [Compound 1.72, N-(2-propoxyiminoethyl)-4-[5-(trifluoromethyl)-1,2,4-oxadiazol-3-yl]benzamide]
≥ 80%: pest or weed control at 200 ppm [1] | inhibition of growth at 20 ppm [2] | pest or weed control at 200 ppm [3] | pest or weed control at 200 ppm [4]

C[C@@H](ON=CCNC(=O)c1ccc(-c2noc(C(F)(F)F)n2)cc1)C(=O)O [Compound 1.74, (2R)-2-[2-[[4-[5-(trifluoromethyl)-1,2,4-oxadiazol-3-yl]benzoyl]amino]ethylideneamino] oxypropanoic acid]
≥ 80%: pest or weed control at 200 ppm [1] | inhibition of growth at 20 ppm [2] | pest or weed control at 200 ppm [3] | pest or weed control at 200 ppm [4]

O=C(NCC=NOCC=CCl)c1ccc(-c2noc(C(F)(F)F)n2)cc1 [Compound 1.78, N-[2-(3-chloroallyloxyimino)ethyl]-4-[5-(trifluoromethyl)-1,2,4-oxadiazol-3-yl]benzamide]
≥ 80%: pest or weed control at 200 ppm [1] | inhibition of growth at 20 ppm [2] | pest or weed control at 200 ppm [3] | pest or weed control at 200 ppm [4]

O=C(NCC=NOC/C=C\Cl)c1ccc(-c2noc(C(F)(F)F)n2)cc1 [Compound 1.81, N-[2-[(Z)-3-chloroallyloxy]iminoethyl]-4-[5-(trifluoromethyl)-1,2,4-oxadiazol-3-yl]benzamide]
≥ 80%: pest or weed control at 200 ppm [1] | inhibition of growth at 20 ppm [2] | pest or weed control at 200 ppm [3] | pest or weed control at 200 ppm [4]

CC(ON=CCNC(=O)c1ccc(-c2noc(C(F)(F)F)n2)cc1)C(=O)O (centres unmarked) [Compound 1.82, 2-[2-[[4-[5-(trifluoromethyl)-1,2,4-oxadiazol-3-yl]benzoyl]amino]ethylideneamino] oxypropanoic acid]
≥ 80%: pest or weed control at 200 ppm [1] | inhibition of growth at 20 ppm [2] | pest or weed control at 200 ppm [3] | pest or weed control at 200 ppm [4]

CC(C)(C)ON=CCNC(=O)c1ccc(-c2noc(C(F)(F)F)n2)cc1 [Compound 1.89, N-(2-tert-butoxyiminoethyl)-4-[5-(trifluoromethyl)-1,2,4-oxadiazol-3-yl]benzamide]
≥ 80%: pest or weed control at 200 ppm [1] | inhibition of growth at 20 ppm [2] | pest or weed control at 200 ppm [3] | pest or weed control at 200 ppm [4]

CC(CNC(=O)c1ccc(-c2noc(C(F)(F)F)n2)cc1)=NOC(C)C(=O)O (centres unmarked) [Compound 1.125, 2-[[1-methyl-2-[[4-[5-(trifluoromethyl)-1,2,4-oxadiazol-3-yl]benzoyl]amino]ethylidene]amino] oxypropanoic acid]
≥ 80%: pest or weed control at 200 ppm [1] | inhibition of growth at 20 ppm [2] | pest or weed control at 200 ppm [4]
